By EC50 is commonly meant the concentration at which the effect is half-maximal.

Positions of bridges follow the written chain, without caps; N, C: chain ends. Residues, ends and D or L forms follow the SMILES beside them. *: point of attachment. X1 = CC(CN[C@@H](Cc1cnc[nH]1)C(=O)O)C(=O)*

The target of assay [1] is Glucagon-like peptide 1 receptor (Homo sapiens, UniProt P43220). Description: Agonist activity at GLP1R expressed in HEK293 cells assessed as stimulation of cAMP production by luciferase reporter gene assay. The class given is functional, cell-based. In general terms: Changes in cAMP serve as a functional read-out for many G protein-coupled receptors.
Another assay deals with Glucagon receptor (Homo sapiens, UniProt P47871). Description: Agonist activity at GCGR expressed in HEK293 cells assessed as stimulation of cAMP production by luciferase reporter gene assay. Format: functional, cell-based.
Chain of Glucagon receptor (P47871 whole entry): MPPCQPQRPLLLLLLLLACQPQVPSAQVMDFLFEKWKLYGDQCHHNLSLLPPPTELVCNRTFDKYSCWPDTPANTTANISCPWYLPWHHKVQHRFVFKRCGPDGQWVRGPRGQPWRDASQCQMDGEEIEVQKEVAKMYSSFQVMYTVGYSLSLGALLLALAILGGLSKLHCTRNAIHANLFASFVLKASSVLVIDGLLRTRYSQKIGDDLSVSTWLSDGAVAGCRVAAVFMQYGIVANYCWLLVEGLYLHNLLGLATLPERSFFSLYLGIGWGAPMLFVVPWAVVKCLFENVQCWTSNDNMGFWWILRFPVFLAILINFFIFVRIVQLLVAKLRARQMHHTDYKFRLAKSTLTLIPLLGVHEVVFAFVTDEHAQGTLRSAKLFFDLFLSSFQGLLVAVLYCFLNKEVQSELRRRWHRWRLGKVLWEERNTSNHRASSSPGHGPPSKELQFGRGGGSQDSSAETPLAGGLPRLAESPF

Chain of Glucagon-like peptide 1 receptor (P43220 whole entry): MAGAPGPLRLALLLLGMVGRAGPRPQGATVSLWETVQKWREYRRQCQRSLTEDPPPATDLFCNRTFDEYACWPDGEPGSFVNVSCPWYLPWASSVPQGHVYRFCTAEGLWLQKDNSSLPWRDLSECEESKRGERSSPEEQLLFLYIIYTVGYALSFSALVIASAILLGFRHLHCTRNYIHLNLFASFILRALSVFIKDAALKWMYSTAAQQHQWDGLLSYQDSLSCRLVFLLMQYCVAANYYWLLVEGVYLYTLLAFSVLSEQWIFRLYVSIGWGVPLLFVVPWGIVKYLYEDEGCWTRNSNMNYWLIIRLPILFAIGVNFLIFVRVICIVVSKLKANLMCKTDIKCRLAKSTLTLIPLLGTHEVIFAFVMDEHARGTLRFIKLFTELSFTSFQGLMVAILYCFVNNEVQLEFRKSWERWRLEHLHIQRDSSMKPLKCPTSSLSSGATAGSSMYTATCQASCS

Consider `CC[C@H](C)[C@H](NC(=O)[C@H](Cc1ccccc1)NC(=O)[C@H](CCC(=O)O)NC(=O)[C@H](CCCCN)NC(=O)[C@H](C)NC(=O)[C@H](C)NC(=O)[C@H](CCC(N)=O)NC(=O)[C@H](CCC(=O)O)NC(=O)[C@H](CC(=O)O)NC(=O)[C@H](CC(C)C)NC(=O)[C@H](Cc1ccc(O)cc1)NC(=O)[C@H](CCCCN)NC(=O)[C@H](CO)NC(=O)[C@H](Cc1ccc(O)cc1)NC(=O)[C@H](CC(=O)O)NC(=O)[C@H](CO)NC(=O)[C@@H](NC(=O)[C@H](Cc1ccccc1)NC(=O)[C@@H](NC(=O)CNC(=O)[C@H](CCC(N)=O)NC(=O)C(C)CN[C@@H](Cc1cnc[nH]1)C(=O)O)[C@@H](C)O)[C@@H](C)O)C(=O)N[C@@H](C)C(=O)N[C@@H](Cc1c[nH]c2ccccc12)C(=O)N[C@@H](CC(C)C)C(=O)N[C@@H](CCSC)C(=O)N[C@@H](CC(N)=O)C(=O)N[C@H](C(=O)O)[C@@H](C)O` (some centres undefined) (X1-QGTFTSDYSKYLDEQAAKEFIAWLMNT-OH), for which the EC50 in assay [1] was 14 pM; at Glucagon receptor, 590 pM.

As for `CC[C@H](C)[C@H](NC(=O)[C@H](Cc1ccccc1)NC(=O)[C@H](CCC(=O)O)NC(=O)[C@@H]1CCCCNC(=O)CC[C@H](NC(=O)[C@H](CC(=O)O)NC(=O)[C@H](CC(C)C)NC(=O)[C@H](Cc2ccc(O)cc2)NC(=O)[C@H](CCCCN)NC(=O)[C@H](CO)NC(=O)[C@H](Cc2ccc(O)cc2)NC(=O)[C@H](CC(=O)O)NC(=O)[C@H](CO)NC(=O)[C@@H](NC(=O)[C@H](Cc2ccccc2)NC(=O)[C@@H](NC(=O)CNC(=O)[C@H](CCC(N)=O)NC(=O)C(C)CN[C@@H](Cc2cnc[nH]2)C(=O)O)[C@@H](C)O)[C@@H](C)O)C(=O)N[C@@H](CCC(N)=O)C(=O)N[C@@H](C)C(=O)N[C@@H](C)C(=O)N1)C(=O)N[C@@H](C)C(=O)N[C@@H](Cc1c[nH]c2ccccc12)C(=O)N[C@@H](CC(C)C)C(=O)N[C@@H](CCSC)C(=O)N[C@@H](CC(N)=O)C(=O)N[C@H](C(=O)O)[C@@H](C)O` (some centres undefined) (X1-QGTFTSDYSKYLDEQAAKEFIAWLMNT-OH; lactam 14-18), the EC50 in assay [1] was determined as 13 pM; on Glucagon receptor, 55 pM.

(Values after ChEMBL document CHEMBL1221226 (Nat Chem Biol, 2009).)
